Values quoted from earlier work as cited in US9439985B2, “Compositions for radiolabeling diethylenetriaminepentaacetic acid (DTPA)-dextran” (Navidea Biopharmaceuticals, Inc., priority 2009, dated 2016).

How the values were obtained:
[1] = test system: mannose-binding glycoprotein receptors in macrophages and dendritic cells present in the sentinel node; details: rabbit; Hoh et al.
[2] = test system: mannose-terminated glycoprotein receptors; details: in vitro; Vera et al.

99mTc-DTPA-mannosyl-dextran
biodistribution after injection [1]: diffuses into lymph channels, flows to the sentinel node, and binds to mannose-binding glycoprotein receptors

DTPA-mannosyl-dextran
binding to mannose-terminated glycoprotein receptors [2]: binds avidly
